Data taken from US20080312435A1, “Imine Compound” (TAISHO PHARMACEUTICAL CO., LTD., priority 2004, published 2008).

Row | SMILES | melting point
1 | O=C(/N=c1\ccccn1CC1CC1)c1cc(Cl)ccc1Cl | 53.5 to 54.5 °C
2 | Cc1c(C(C)C)s/c(=N\C(=O)c2cccc(C(F)(F)F)c2F)n1C | 89 to 91 °C
3 | Cc1c(C(C)C)s/c(=N\C(=O)c2cccc(C(F)(F)F)c2)n1CC1CC1 | 89 to 91 °C
4 | Cc1c(C(C)(C)C)s/c(=N\C(=O)c2cccc(Br)c2)n1C | 173 to 175 °C
5 | Cc1c(C(C)(C)C)s/c(=N\C(=O)c2cccc(N(C)C)c2)n1C | 189 to 190 °C
6 | Cc1c(C(C)(C)C)s/c(=N\C(=O)c2cccc(C#N)c2)n1C | 131 to 133 °C
7 | Cc1c(C(C)(C)C)s/c(=N\C(=O)c2cccc(F)c2F)n1C | 176 to 178 °C
8 | COc1ccc(C(=O)/N=c2\sc(C(C)(C)C)c(C)n2C)c(OC)c1 | 138 to 140 °C
9 | O=C(/N=c1\ccccn1CC1CC1)c1cc(F)ccc1C(F)(F)F | 88.5 to 89 °C
10 | CCn1c(C)c(C(C)(C)C)s/c1=N\C(=O)C(F)(F)C(F)(F)C(F)(F)F | 113 to 115 °C
11 | CCCn1c(C)c(C(C)(C)C)s/c1=N\C(=O)c1cccc(C(F)(F)F)c1 | 172 to 174 °C
12 | O=C(/N=c1\ccccn1CC1CC1)c1cc(C(F)(F)F)ccc1F | 127 to 127.5 °C
13 | O=C(/N=c1\ccccn1CC1CC1)c1cccc(C(F)(F)F)c1 | 105.5 to 106.5 °C
14 | Cc1c(C(C)(C)C)s/c(=N\C(=O)c2ccc(F)c(C(F)(F)F)c2)n1CC1CC1 | 123 to 124 °C
15 | Cc1c(C(C)(C)C)s/c(=N\C(=O)c2cc(F)cc(C(F)(F)F)c2)n1CC1CC1 | 100 to 102 °C
16 | Cc1c(C(C)(C)C)s/c(=N\C(=O)c2ccc(Cl)c(C(F)(F)F)c2)n1CC1CC1 | 122 to 124 °C
17 | CCCNc1ccc(C(F)(F)F)cc1C(=O)/N=c1\sc(C(C)(C)C)c(C)n1CC1CC1 | 131 to 132 °C
18 | Cc1c(C(C)(C)C)s/c(=N\C(=O)c2cc(C(F)(F)F)ccc2N2CCOCC2)n1CC1CC1 | 86 to 87 °C
19 | O=C(/N=c1\ccc(C(F)(F)F)cn1CC1CC1)c1cc(C(F)(F)F)ccc1F | 109 to 110 °C
20 | Cc1c(C(C)(C)C)s/c(=N\C(=O)c2cccnc2OC(C)C)n1CC1CC1 | 151 to 153 °C
21 | Cc1c(C(C)(C)C)s/c(=N\C(=O)c2cccnc2N2CCCC2)n1CC1CC1 | 97 to 98 °C
22 | COc1cc(C(=O)/N=c2\sc(C(C)(C)C)c(C)n2CC2CC2)cc(Cl)n1 | 127 to 128 °C

Row | SMILES | melting point
23 | Cc1c(C(C)(C)C)s/c(=N\C(=O)Cc2cccs2)n1CC1CC1 | 157 to 159 °C
24 | Cc1c(C(=O)N2CCCC2)s/c(=N\C(=O)c2cccc(C(F)(F)F)c2)n1CC1CC1 | 125 to 127 °C
25 | CC(C)c1s/c(=N\C(=O)c2cncc(Br)c2)n(CC2CC2)c1C(F)(F)F | 139 to 141 °C
26 | CCn1c(C)c(Cl)s/c1=N\C(=O)c1cccc(C(F)(F)F)c1F | 158 to 160 °C
27 | C=CCn1c(-c2ccccc2)c(-c2ccccc2)s/c1=N\C(=O)c1ccccc1 | 141 to 143 °C
28 | Cc1ccccc1C(=O)/N=c1\sc2cc(F)ccc2n1CC1CC1 | 143 to 145 °C
29 | Cc1ccccc1C(=O)/N=c1/sc2cccc(Cl)c2n1CC1CC1 | 146 to 148 °C
30 | Cc1ccccc1C(=O)/N=c1/sc2cccc(C)c2n1CC1CC1 | 133 to 134 °C
31 | Cc1ccccc1C(=O)/N=c1/sc2cc(F)cc(F)c2n1CC1CC1 | 146 to 148 °C
32 | COCCn1/c(=N/C(=O)c2cccc(C(F)(F)F)c2F)cc(C)n1C | 144 to 145 °C
33 | COCCCn1/c(=N/C(=O)c2cccc(C(F)(F)F)c2F)cc(C)n1C | 88 to 90 °C
34 | Cn1c(C(C)(C)C)c/c(=N\C(=O)C(F)(F)F)n1CC1CC1 | 122 to 124 °C
35 | Cn1c(C(C)(C)C)c/c(=N\C(=O)c2cccc(OC(F)(F)C(F)F)c2)n1CC1CC1 | 110 to 111 °C
36 | Cn1c(C(C)(C)C)c/c(=N\C(=O)c2cccc(Cl)c2Cl)n1CC1CC1 | 158 to 159 °C
37 | Cc1c(I)cccc1C(=O)/N=c1\cc(C(C)(C)C)n(C)n1CC1CC1 | 138 to 140 °C
38 | Cc1ccc(F)cc1C(=O)/N=c1\cc(C(C)(C)C)n(C)n1CC1CC1 | 161 to 162 °C
39 | Cc1c(C(C)(C)C)n(C)n(CC2CC2)/c1=N/C(=O)c1cccc(C(F)(F)F)c1F | 149 to 150 °C
40 | Cn1c(C2CC2)c/c(=N\C(=O)c2cccc(C(F)(F)F)c2F)n1-c1ccccc1 | 168.5 to 169.5 °C
41 | Cn1c(C(F)(F)F)c(-c2ccccc2)/c(=N\C(=O)c2cccc(C(F)(F)F)c2F)n1C | 169.5 to 170 °C
42 | Cn1cccc/c1=N\C(=O)c1cccc(C(F)(F)F)c1F | 146 to 147 °C
43 | Cc1ccc(C(F)(F)F)cc1C(=O)/N=c1\sc(C(C)(C)C)nn1CC1CC1 | 63 to 65 °C
44 | CC(C)(C)c1nn(CC2CC2)/c(=N/C(=O)c2cc(C(F)(F)F)ccc2F)s1 | 47 to 49 °C

Now from value to molecule:

Row | melting point | SMILES
45 | 90 to 91 °C | O=C(/N=c1\ccccn1CC1CC1)C(F)(F)F
46 | 92 to 94 °C | Cc1s/c(=N\C(=O)C(F)(F)C(F)(F)C(F)(F)F)n(CC2CC2)c1C
47 | 115 to 117 °C | CCc1s/c(=N\C(=O)c2cccc(C(F)(F)F)c2F)n(CC)c1C
48 | 88 to 89 °C | O=C(/N=c1\ccccn1CC1CC1)c1cccc(F)c1C(F)(F)F
49 | 173 to 175 °C | Cc1ccccc1C(=O)/N=c1\sc(C(C)(C)C)c(C)n1C
50 | 192 to 193 °C | COC(=O)c1cccc(C(=O)/N=c2\sc(C(C)(C)C)c(C)n2C)c1
51 | 250 to 252 °C | Cc1c(C(C)(C)C)s/c(=N\C(=O)c2cccc(C(=O)O)c2)n1C
52 | 140 to 142 °C | Cc1c(C(C)(C)C)s/c(=N\C(=O)c2cc(C(F)(F)F)ccc2F)n1C
53 | 202 to 203 °C | Cc1c(C(C)(C)C)s/c(=N\C(=O)c2cccnc2)n1C.Cl
54 | 117 to 118 °C | O=C(/N=c1\ccccn1CCc1ccccc1)c1cccc(C(F)(F)F)c1F
55 | 106 to 107 °C | Cc1c(C(C)(C)C)s/c(=N\C(=O)c2ccccc2)n1CC1CC1
56 | 178 to 180 °C | Cc1c(C(C)(C)C)s/c(=N\C(=O)c2ccccc2O)n1CC1CC1
57 | 89 to 90 °C | CCN(CC)c1cccc(C(=O)/N=c2\sc(C(C)(C)C)c(C)n2CC2CC2)c1
58 | 134 to 136 °C | CCN(CC)c1ccc(C(=O)/N=c2\sc(C(C)(C)C)c(C)n2CC2CC2)cc1
59 | 118 to 120 °C | Cc1c(C(C)(C)C)s/c(=N\C(=O)c2cccc(N3CCCC3)c2)n1CC1CC1
60 | 114 to 115 °C | Cc1c(C(C)(C)C)s/c(=N\C(=O)c2cccc(N3CCOCC3)c2)n1CC1CC1
61 | 93 to 93.5 °C | O=C(/N=c1\ccc(C(F)(F)F)cn1CC1CC1)c1ccccc1C(F)(F)F
62 | 100 to 102 °C | Cc1c(C(C)(C)C)s/c(=N\C(=O)c2cc(C(F)(F)F)ccc2N2CCC2)n1CC1CC1
63 | 195 to 197 °C | Cc1c(C(C)(C)C)s/c(=N\C(=O)c2ccc(F)c(C#N)c2)n1CC1CC1
64 | 228 to 230 °C | Cc1ccc(C(=O)/N=c2\sc(C(C)(C)C)c(C)n2CC2CC2)cn1
65 | 152 to 154 °C | Cc1c(C(C)(C)C)s/c(=N\C(=O)c2cncc(Br)c2)n1CC1CC1
66 | 111 to 114 °C | Cc1c(C(C)(C)C)s/c(=N\C(=O)c2cccnc2OC2C=CC=CC2)n1CC1CC1 (stereo not shown)
67 | 124 to 126 °C | COc1cc(C(=O)/N=c2\sc(C(C)(C)C)c(C)n2CC2CC2)c(OC)nn1
68 | 104 to 105 °C | CCCc1c(C(=O)/N=c2\sc(C(C)(C)C)c(C)n2CC2CC2)cnn1-c1ccccc1
69 | 189 to 191 °C | Cc1c(C(C)(C)C)s/c(=N\C(=O)C2CCC2)n1CC1CC1

Row | melting point | SMILES
70 | 92 to 94 °C | Cc1c(C(C)(C)C)s/c(=N\C(=O)Cc2ccccc2)n1CC1CC1
71 | 115 to 116 °C | CCOC(=O)c1s/c(=N\C(=O)c2cccc(C(F)(F)F)c2)n(CC2CC2)c1C
72 | 291 to 293 °C | Cc1c(C(=O)O)s/c(=N\C(=O)c2cccc(C(F)(F)F)c2)n1CC1CC1
73 | 212 to 214 °C | Cc1c(C(=O)NC(C)C)s/c(=N\C(=O)c2cccc(C(F)(F)F)c2)n1CC1CC1
74 | 115 to 117 °C | Cc1ccccc1C(=O)/N=c1\sc2ccccc2n1CC1CC1
75 | 156 to 158 °C | CN(C)c1cccc(C(=O)/N=c2\sc3ccccc3n2CC2CC2)c1
76 | 181 to 183 °C | Cc1ncccc1C(=O)/N=c1\sc2ccccc2n1CC1CC1
77 | 160 to 161 °C | Cc1cc2s/c(=N\C(=O)c3ccccc3C)n(CC3CC3)c2cc1C
78 | 147 to 148 °C | Cc1cccc(C(=O)/N=c2\cc(C(C)(C)C)n(C)n2CC2CC2)c1I
79 | 138 to 139 °C | Cc1c(Br)cccc1C(=O)/N=c1\cc(C(C)(C)C)n(C)n1CC1CC1
80 | 153 to 154 °C | Cc1ccc(C(=O)/N=c2\cc(C(C)(C)C)n(C)n2CC2CC2)c(Br)c1
81 | 128 to 129 °C | COc1cc(Cl)ccc1C(=O)/N=c1\cc(C(C)(C)C)n(C)n1CC1CC1
82 | 99 to 101 °C | COc1ccc(C(F)(F)F)cc1C(=O)/N=c1\cc(C(C)(C)C)n(C)n1CC1CC1
83 | 135 to 136 °C | Cc1ccc(C(=O)/N=c2\cc(C(C)(C)C)n(C)n2CC2CC2)cc1Cl
84 | 147.5 to 149.5 °C | Cn1c(C(C)(C)C)c/c(=N\C(=S)Nc2ccc(F)cc2)n1CC1CC1
85 | 94 to 95 °C | COc1ccncc1C(=O)/N=c1\sc(C(C)(C)C)nn1CC1CC1
86 | 93 to 95 °C | CCn1cccc/c1=N\C(=O)c1cccc(C(F)(F)F)c1F
87 | 96 to 97 °C | O=C(/N=c1\sccn1CC1CC1)c1cccc(C(F)(F)F)c1F
88 | 48 to 50 °C | CCn1c(C)cs/c1=N\C(=O)c1cccc(C(F)(F)F)c1F
89 | 173 to 174 °C | Cc1cn(C)/c(=N/C(=O)c2cccnc2)s1
90 | 110 to 111 °C | Cc1s/c(=N\C(=O)c2cccc(C(F)(F)F)c2)n(C)c1C
91 | 51 to 52 °C | CCCCn1cccc/c1=N\C(=O)c1cccc(C(F)(F)F)c1F
92 | 113 to 115 °C | Cc1s/c(=N\C(=O)c2cc(Cl)ccc2Cl)n(CC2CC2)c1C
93 | 154 to 155 °C | Cc1s/c(=N\C(=O)c2ccc(Br)cc2F)n(CC2CC2)c1C
94 | 67 to 69 °C | CCC(CC)C(=O)/N=c1\sc(C)c(C)n1CC1CC1
